Assay results taken from ChEMBL document CHEMBL1201862, “PubChem BioAssay data set” (2004).
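Briefly, cells in 96-well plates were exposed to five compound concentrations for 48 h, and endpoints were estimated by linear interpolation. GI50 = concentration required for 50% inhibition of growth.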 Calls of active or inactive are those of the source. Cut-off read from the data, not from the text of the source: active = GI50 up to about 1.1 µM and inactive = higher.

Columns and labels:
Assay in all cases: NCI-60 cell line screen, 48 h
[1] = tested on: A549
[2] = tested on: SF-268
[3] = tested on: SN12C
[4] = tested on: EKVX
[5] = tested on: MOLT-4
[6] = tested on: HCC 2998
[7] = tested on: OVCAR-3
[8] = tested on: HL-60
[9] = tested on: ACHN
[10] = tested on: SK-MEL-28
[11] = tested on: IGROV-1
[12] = tested on: HCT-15
[13] = tested on: COLO 205
[14] = tested on: SK-OV-3
[15] = tested on: UO-31
[16] = tested on: OVCAR-8

SMILES | GI50 [1] | GI50 [2] | GI50 [3] | GI50 [4] | GI50 [5] | GI50 [6] | GI50 [7] | GI50 [8] | GI50 [9] | GI50 [10] | GI50 [11] | GI50 [12] | GI50 [13] | GI50 [14] | GI50 [15] | GI50 [16]
O=c1c2cc(-c3ccccc3)cnc2sn1-c1ccc(Oc2ccccc2)cc1 | 19.5 µM (inactive) | 51.4 µM (inactive) | 31.3 µM (inactive) | 68.5 µM (inactive) | 49.2 µM (inactive) | 73.5 µM (inactive) | 31.5 µM (inactive) | > 100 µM (inactive) | 66.8 µM (inactive) | > 100 µM (inactive) | 32.6 µM (inactive) | 56.5 µM | > 100 µM (inactive) | > 100 µM (inactive) | 47 µM (inactive) | 26.9 µM (inactive)
COc1ccc(/C=C2\CC3C4CC=C5C[C@@H](N6CCCC6)CC[C@]5(C)C4CC[C@]3(C)[C@H]2O)cc1OC (some centres undefined) | 9.46 µM (inactive) | 10.4 µM (inactive) | 10.2 µM (inactive) | 8.79 µM (inactive) | 8.39 µM (inactive) | 5.52 µM (inactive) | 8.32 µM (inactive) | 14.4 µM (inactive) | 8.85 µM (inactive) | 8.51 µM (inactive) | 10.7 µM (inactive) | 6.81 µM | 8.38 µM (inactive) | 8.81 µM (inactive) | 9.27 µM (inactive) | 10.6 µM (inactive)
N#Cc1nnn(C2CCCCC2)c1O | > 100 µM (inactive) | > 100 µM (inactive) | > 100 µM (inactive) | > 100 µM (inactive) | > 100 µM (inactive) | > 100 µM (inactive) | > 100 µM (inactive) | > 100 µM (inactive) | > 100 µM (inactive) | > 100 µM (inactive) | > 100 µM (inactive) | > 100 µM | > 100 µM (inactive) | > 100 µM (inactive) | > 100 µM (inactive) | > 100 µM (inactive)
ClCCN1CCO/C1=N/c1ccc2c(c1)CCCC2 | 13.8 µM (inactive) | 14.7 µM (inactive) | 12.6 µM (inactive) | 14 µM (inactive) | 12.2 µM (inactive) | 14.1 µM (inactive) | 13 µM (inactive) | 4.25 µM (inactive) | 7.05 µM (inactive) | 14.1 µM (inactive) | 7.48 µM (inactive) | 20 µM | 12.2 µM (inactive) | 20.7 µM (inactive) | 14 µM (inactive) | 5.13 µM (inactive)
Cc1c(C#N)c(=N)oc2ccccc12 | > 100 µM (inactive) | > 100 µM (inactive) | > 100 µM (inactive) | 49.8 µM (inactive) | > 100 µM (inactive) | > 100 µM (inactive) | > 100 µM (inactive) | > 100 µM (inactive) | > 100 µM (inactive) | > 100 µM (inactive) | > 100 µM (inactive) | 83.2 µM | > 100 µM (inactive) | > 100 µM (inactive) | > 100 µM (inactive) | > 100 µM (inactive)
CS(=O)(=O)c1nc(-c2cc3c(c(S(C)(=O)=O)n2)CCC3)cc2c1CCCC2 | > 100 µM (inactive) | 7.76 µM (inactive) | > 100 µM (inactive) | > 100 µM (inactive) | > 100 µM (inactive) | > 100 µM (inactive) | > 100 µM (inactive) | > 100 µM (inactive) | 37 µM (inactive) | > 100 µM (inactive) | 18.3 µM (inactive) | > 100 µM | > 100 µM (inactive) | 24.4 µM (inactive) | 7.71 µM (inactive) | 19.1 µM (inactive)
[N-]=[N+]=CC(=O)OC1Cc2ccccc2C1 | 84.3 µM (inactive) | > 100 µM (inactive) | > 39.4 µM (inactive) | > 100 µM (inactive) | > 100 µM (inactive) | > 100 µM (inactive) | > 100 µM (inactive) | > 100 µM (inactive) | 27.7 µM (inactive) | > 100 µM (inactive) | > 100 µM (inactive) | > 100 µM | > 72.6 µM (inactive) | > 100 µM (inactive) | 16.6 µM (inactive) | > 100 µM (inactive)
COc1ccc(/N=N/C(=O)NC(CC(C)C)C(=O)NCC(=O)O)cc1 (centres undefined) | 3.29 µM (inactive) | > 43.8 µM (inactive) | > 46.8 µM (inactive) | 43.4 µM (inactive) | 1.83 µM (inactive) | 8.97 µM (inactive) | 19.8 µM (inactive) | 5.9 µM (inactive) | 1.54 µM (inactive) | 57.7 µM (inactive) | 6.27 µM (inactive) | 1.46 µM | 4.47 µM (inactive) | > 100 µM (inactive) | 1.04 µM (active) | 21.3 µM (inactive)
C=C(Cl)[C@](Cl)(CBr)CC[C@@H](Br)C(C)(C)Cl [HALOMON] | 2.12 µM (inactive) | 0.515 µM (active) | 3.23 µM (inactive) | 3.64 µM (inactive) | 12.8 µM (inactive) | 1.5 µM (inactive) | 0.791 µM (active) | 0.421 µM (active) | 1.01 µM (active) | 1.73 µM (inactive) | 6.67 µM (inactive) | 2.01 µM | 1.84 µM (inactive) | 9.57 µM (inactive) | 0.959 µM (active) | 1.27 µM (inactive)
